Laboratory results as given in patent US20110087153A1, “Transdermal Methods And Systems For The Delivery Of Rizatriptan” (priority 2009, published 2011).

Tests used:
[1] = Permeation through dialysis membrane (iontophoresis side-by-side diffusion cells); assay type: in vitro ADME
Protocol: Ionotophoresis side-by side diffusion cells with 9 mm diameter opening were obtained from PermeGear. The current clamps with PC control were provided by NuPathe, Inc. The temperature controller was from Henke. 2.0 mm diameter Zinc and Silver were obtained from Alpha Aesar. Sumatriptan, Zolmitriptan and Rizatriptan wore provided by NuPathe. Sodium chloride was obtained from Fisher Scientific,
A donor solution of 4% sumatriptan succinate in 0.9% NaCl was prepared. The receiver solution was 0.9% Sodium chloride in water. A Millipore 1000 mw cutoff membrane were used as the membrane. The glossy side of the membrane faced the donor compartment. The volume of the donor and receiver solution was 3.0 ml. 0.5 mm zinc wire was placed in the donor compartment and 2.0 mm silver wire was placed in the receiver compartment. The temperature of the apparatus was maintained at 33° C.
Ketoprofen was obtained from Spectrum Chemical. A 2% ketoprofen donor solution was made by dissolving in 0.1 N NaOH.
Three cells were clamped at 2 mAmps/cm^2 (1.27 mAmp/cell), 3 cells were clamped at 2 mAmp/cm^2 with the electrodes reversed, 3 cells (the control cells) were not clamped.
At each sampling point 2 ml was withdrawn from the receiver compartment and was replaced with 0.9% Sodium Chloride. Each sample was diluted using 0.9% NaCl to be within the standard curve. Absorbance was measured using a UV spectrophotometer with a 1 cm quartz cuvette at 282 nm. […]

[2] = cited from earlier work
[3] = Permeation of compound through human cadaver skin (iontophoresis, drug solutions); assay type: in vitro ADME; conditions: 2 mAmp/cm^2, 2% zolmitriptan, 4% rizatriptan, 4% sumatriptan solutions (FIG. 5)
Protocol: Human cadaver skin was obtained from Allosource. The skin was maintained at −70° C. prior to use. A portion of skin was thawed in 0.9% NaCl solution for 30 minutes. The skin was towel dried and cut into 2 cm square sections. The skin was mounted with the epidermis side toward the donor chamber in the Permeagear 0.9 cm diameter side-by-side diffusion cells.
A solution of 2% zolmitriptan was made by dissolving zolmitriptan in 0.1 N HCl. A 4% sumatriptan solution was made by dissolving sumatriptan in 0.1% NaCl. The 4% rizatriptan solution was made by dissolving the rizatriptan in 0.1% NaCl
Three cells were dosed with 2% zolmitriptan, three cells were dosed with 4% rizatriptan, and two cells were dosed with 4% sumatriptan. Normal saline solution was used as the receiver solution. The cells were clamped at 1.27 mAmp (2 mAmp/cm^2). 2 ml of each receiver compartment was sampled every 30 minutes and replaced with normal saline solution. One cell of the rizatriptan iontophoresis and one cell of sumatriptan iontophoresis were lost during the study due to holes in the skin.
Each 2 ml sample was diluted 1 to 100 with water. Zolmitriptan and sumatriptan were assayed by UV at 222 nm and 282 nm respectively. Rizatriptan was assay by HPLC as previously described.

[4] = Permeation of formulated product through human cadaver skin (iontophoresis, gel formulations); assay type: in vitro ADME; conditions: for Lag time: human cadaver skin, gel with 3.4% lauric acid, 2 mAmp/cm^2
Protocol: Brij 30 (Laureth-4) and adipic acid were obtained from Fisher Scientific. Eudragit E*PO was obtained from Evonik. Human cadaver skin was thawed in 0.9% NaCl for 30 minutes and patted dry. The skin was cut into 2 cm square sections. The epidermis was placed towards the donor compartment of a […] PermeGear side-by-side diffusion cell. The donor gel was placed in the donor compartment and 3 ml of normal saline solution was placed in the receiver compartment. Three cells were dosed with zolmitriptan with 3.4% lauric acid, three cells were dosed with rizatriptan with 3.4% lauric acid and two cells were dosed with rizatriptan with 3.4% Brij 30. The cells were clamped at 1.27 mAmp (2 mAmp/cm^2). Two ml of each receiver compartment was sampled every 30 minutes and replaced with normal saline solution. Each 2 ml sample was diluted 1 to 100 with water. Zolmitriptan and sumatriptan were assayed by UV at 222 nm Rizatriptan was assayed by HPLC as previously described. Additional analysis of the permeation data was conducted to find the amount of time to dose 5 mg of drug based on reasonable patch areas, and is shown in Table 4. […] However, as was observed by the previous permeation data, zolmitriptan would need a total of 43 minutes when the lag-time is considered compared to 19 minutes for rizatriptan when the lag time is considered.

[5] = Oxidation stability for rizatriptan under 2 mA current; assay type: physicochemical; conditions: for Rizatriptan concentration after exposure to 2 mAmp current: 0.9% NaCl
Protocol: A drug stock solution was made by dissolving 2.8 mg of rizatriptan benzoate in 0.9% NaCl to a volume of 50 mL. The working standard was prepared by diluting 0.5 ml of the stock solution to 10 ml with 0.9% NaCl. This produced a final concentration of 2.8 mcg/ml, for the working standard.
A solution was made by dissolving 0.5000 g of rizatriptan benzoate in 0.9% NaCl to a final volume of 50 mL. A 1 ml sample of this solution was kept for future assay. The remaining solution was placed in a beaker covered with parafilm Zinc wire (Cathode) and silver wire (anode) were passed through the parafilm and placed in the drug solution. Current of 2 mA was passed through the solution. Samples of 1 mL each were withdrawn every 30 minutes for 5.5 hours.
A 0.1 mL volume from each sample was diluted with 15 mL of 0.9% NaCl. A 1 ml volume of this dilution was then further diluted to 10 ml using 0.9% NaCl. Similarly, a 0.1 ml volume of the initial solution was diluted with 15 mL of 0.9% NaCl. A 1 ml volume of this dilution was then diluted to 10 ml with 0.9% NaCl.

[6] = Iontophoresis properties (charge and molecular weight analysis); assay type: physicochemical
Excerpt: This is because the diffusion and permeation through a hydrophilic membrane are dependent on molecular weight, radius of the molecule and the ionic drag the molecule has with the membrane.

[7] = 1000 mwco dialysis membrane, 33° C., UV assay
[8] = 1000 mwco dialysis membrane, 33° C., UV assay, listed as ketoprofen

CC(C(=O)O)c1cccc(C(=O)c2ccccc2)c1 (centres unmarked) [Ketoprofen]
Flux, Iontophoresis (2 mAmp/cm^2) [1, 7]: 8.24 mcg/cm^2/min
Flux, Passive diffusion (No current) [1, 7]: 7.41 mcg/cm^2/min
Flux, Reversed Electrodes (Current reversed at 2 mAmp/cm^2) [1, 7]: 11.66 mcg/cm^2/min
Flux, Iontophoresis (2 mAmp/cm^2) [1, 8]: less than the passive diffusion
Flux, Passive diffusion (No current) [1, 8]: substantial
Flux, Reversed Electrodes (Current reversed at 2 mAmp/cm^2) [1, 8]: greatest flux
Ratio of Iontophoresis to Passive Diffusion ([1]; 1000 mwco dialysis membrane, UV assay): 1.6

CCCCCCCCCCCC(=O)O [Lauric acid]
pKa [2]: around 4.9

CN(C)CCc1c[nH]c2ccc(Cn3cncn3)cc12 [Rizatriptan]
Skin permeation by iontophoresis [3]: greater skin permeation than sumatriptan and zolmitriptan
Lag time [4]: 9 min
Total time to deliver 5 mg when the lag time is considered [4]: 19 min
Time in which a dose (5 mg) can be delivered ([4]; suggested by the results of the formulation studies): about 45 minutes
Rizatriptan concentration after exposure to 2 mAmp current ([5]; 0 min): 10.000 mg/mL
Exposure time after which degradation becomes significant ([5]; 2 mA current): > 4 h
Rate of degradation ([5]; 2 mA current, regression with all data): ~16 µg/mL/min
Rizatriptan concentration after exposure to 2 mAmp current ([5]; 30 min): 10.041 mg/mL
Rizatriptan concentration after exposure to 2 mAmp current ([5]; 60 min): 9.829 mg/mL
Rizatriptan concentration after exposure to 2 mAmp current ([5]; 90 min): 9.909 mg/mL
Rizatriptan concentration after exposure to 2 mAmp current ([5]; 120 min): 9.782 mg/mL
Rizatriptan concentration after exposure to 2 mAmp current ([5]; 150 min): 9.942 mg/mL
Rizatriptan concentration after exposure to 2 mAmp current ([5]; 180 min): 9.875 mg/mL
Rizatriptan concentration after exposure to 2 mAmp current ([5]; 210 min): 9.801 mg/mL
Rizatriptan concentration after exposure to 2 mAmp current ([5]; 240 min): 9.758 mg/mL
Rizatriptan concentration after exposure to 2 mAmp current ([5]; 270 min): 9.963 mg/mL
Rizatriptan concentration after exposure to 2 mAmp current ([5]; 300 min): 9.216 mg/mL
Rizatriptan concentration after exposure to 2 mAmp current ([5]; 330 min): 9.389 mg/mL
Degradation ([5]; during the 5.5 hour exposure to 2 mA current): approximately 7%
Ionizable Nitrogens [6]: 3
MW/charge Ratio [6]: 89.8

CNS(=O)(=O)Cc1ccc2[nH]cc(CCN(C)C)c2c1 [Sumatriptan]
Flux, Passive diffusion (No current) ([1]; not told): 0.58 mcg/cm^2/min
Flux, Reversed Electrodes (Current reversed at 2 mAmp/cm^2) ([1]; not told): 0.11 mcg/cm^2/min
Ionizable Nitrogens [6]: 2
MW/charge Ratio [6]: 147.7

CN(C)CCc1c[nH]c2ccc(C[C@H]3COC(=O)N3)cc12 [Zolmitriptan]
Flux, Passive diffusion (No current) ([1]; not told): 3.32 mcg/cm^2/min
Flux, Reversed Electrodes (Current reversed at 2 mAmp/cm^2) ([1]; not told): 0.05 mcg/cm^2/min
Ratio of Iontophoresis to Passive Diffusion ([1]; not told): 11.5
Skin permeation by iontophoresis [3]: very comparable to the permeation of sumatriptan via iontophoresis
Lag time [4]: 20 min
Total time to deliver 5 mg when the lag time is considered [4]: 43 min
Ionizable Nitrogens [6]: 3
MW/charge Ratio [6]: 92.8
